From patent US20210269434A1, “TRICYCLIC COMPOUNDS AS INHIBITORS OF KRAS” (Incyte Corporation, priority 2020, published 2021)

Experiments:
[1] = test system: MIA PaCa-2 (KRAS G12C) cells; assay: Cellular pERK HTRF assay (KRAS_G12C pERK); type: cell-based, human; settings: Homo sapiens, MIA PaCa-2, 4 hours incubation, read-out: G12C_pERK
Summary of the method: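 MIA PaCa-2 cells plated overnight, then exposed to compound for 4 h at 37 °C (G12C compounds). Phospho-ERK1/2 measured in lysates by HTRF (665/620 nm) after overnight antibody incubation; IC50 from percent inhibition versus log concentration.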

KRAS G12C = KRAS G12C (Homo sapiens, UniProt P01116, G12C); assay: GDP-GTP exchange assay (KRAS_G12C exchange); type: biochemical; settings: bodipy-GDP loaded KRAS G12C 2.5 nM, SOS1 150 nM, GppNHp; 2 hours pre-incubation, 2 hours reaction; read-out: G12C_exchange
Sequence of KRAS G12C (P01116 1-188 isoform P01116-2 G12C): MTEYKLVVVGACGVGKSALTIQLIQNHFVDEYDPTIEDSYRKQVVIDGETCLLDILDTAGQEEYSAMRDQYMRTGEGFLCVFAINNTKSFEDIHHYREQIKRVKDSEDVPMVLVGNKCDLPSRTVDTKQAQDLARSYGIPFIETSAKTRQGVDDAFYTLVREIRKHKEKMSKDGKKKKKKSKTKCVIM
Summary of the method: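 Fluorescence exchange of bodipy-GDP for GppNHp, SOS1-driven, read at 485/520 nm; IC50 from four-parameter variable-slope fit. Both mutants used 2.5 nM final labelled protein and a 2 h compound pre-incubation. G12C reaction had 500 uM GppNHp and 150 nM SOS1 for 2 h; G12D ran 4 h.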

SMILES	IC50 [1] [nM]	IC50 (KRAS G12C) [nM]
C=CC(=O)N1CC(n2c(=O)[nH]c3c(=O)n(-c4c(C)ccnc4C(C)C)c4nc(-c5cc(O)cc6ccccc56)c(F)cc4c32)C1 [Example 26, 1-(1-acryloylazetidin-3-yl)-8-fluoro-7-(3-hydroxynaphthalen-1-yl)-5-(2-isopropyl-4-methylpyridin-3-yl)-3,5-dihydro-1H-imidazo[4,5-c][1,8]naphthyridine-2,4-dione]	1000 to 5000	≤ 100
C=CC(=O)N1CC(n2c(=O)n(C[C@@H]3CCCN3C)c3c(=O)n(-c4c(C)ccnc4C(C)C)c4nc(-c5cc(O)cc6ccccc56)c(F)cc4c32)C1 [Example 27, (S)-1-(1-acryloylazetidin-3-yl)-8-fluoro-7-(3-hydroxynaphthalen-1-yl)-5-(2-isopropyl-4-methylpyridin-3-yl)-3-((1-methylpyrrolidin-2-yl)methyl)-3,5-dihydro-1H-imidazo[4,5-c][1,8]naphthyridine-2,4-dione]	1000 to 5000	100 to 1000
C=CC(=O)N1C[C@H](n2cnc3c(N4CC(N(C)C)C4)nc4c(F)c(-c5cccc6ccccc56)c(Cl)cc4c32)C[C@@H]1CC#N [Example 63, 2-((2R,4R)-1-acryloyl-4-(8-chloro-4-(3-(dimethylamino)azetidin-1-yl)-6-fluoro-7-(naphthalen-1-yl)-1H-imidazo[4,5-c]quinolin-1-yl)pyrrolidin-2-yl)acetonitrile]	≤ 100	≤ 100
C=CC(=O)N1CC[C@H](n2cnc3c(N4CC(N(C)C)C4)nc4c(F)c(-c5cccc6c5OCCC6)c(Cl)cc4c32)C[C@H]1CC#N [Example 65, 2-((2S,4S)-1-acryloyl-4-(8-chloro-7-(chroman-8-yl)-4-(3-(dimethylamino)-azetidin-1-yl)-6-fluoro-1H-imidazo[4,5-c]quinolin-1-yl)piperidin-2-yl)acetonitrile]	≤ 100	≤ 100
C=CC(=O)N1CC[C@H](n2cnc3c(N4CC(N(C)C)C4)nc4c(F)c(-c5c(OC)ccc6ccccc56)c(Cl)cc4c32)C[C@H]1CC#N [Example 66, 2-((2S,4S)-1-acryloyl-4-(8-chloro-4-(3-(dimethylamino)azetidin-1-yl)-6-fluoro-7-(2-methoxynaphthalen-1-yl)-1H-imidazo[4,5-c]quinolin-1-yl)piperidin-2-yl)acetonitrile]	≤ 100	≤ 100
C=CC(=O)N1CC[C@H](n2cnc3c(N4CC(N(C)C)C4)nc4c(F)c(-c5ccc(F)c6ccccc56)c(Cl)cc4c32)C[C@H]1CC#N [Example 67, 2-((2S,4S)-1-acryloyl-4-(8-chloro-4-(3-(dimethylamino)azetidin-1-yl)-6-fluoro-7-(4-fluoronaphthalen-1-yl)-1H-imidazo[4,5-c]quinolin-1-yl)piperidin-2-yl)acetonitrile]	≤ 100	≤ 100
C=CC(=O)N1CC[C@H](n2cnc3c(N4CC(N(C)C)C4)nc4c(F)c(-c5cccc6cccc(C)c56)c(Cl)cc4c32)C[C@H]1CC#N [Example 68, 2-((2S,4S)-1-acryloyl-4-(8-chloro-4-(3-(dimethylamino)azetidin-1-yl)-6-fluoro-7-(8-methylnaphthalen-1-yl)-1H-imidazo[4,5-c]quinolin-1-yl)piperidin-2-yl)acetonitrile]	≤ 100	≤ 100
C=CC(=O)N1CC[C@H](n2cnc3c(N4CC(N(C)C)C4)nc4c(F)c(-c5cccc6c5OCCO6)c(Cl)cc4c32)C[C@H]1CC#N [Example 69, 2-((2S,4S)-1-acryloyl-4-(8-chloro-7-(2,3-dihydrobenzo[b][1,4]dioxin-5-yl)-4-(3-(dimethylamino)azetidin-1-yl)-6-fluoro-1H-imidazo[4,5-c]quinolin-1-yl)piperidin-2-yl)acetonitrile]	≤ 100	≤ 100
CC#CC(=O)N1CC[C@H](n2cnc3c(N4CC(C)(N(C)C)C4)nc4c(F)c(-c5c(C)c(Cl)cc6[nH]ncc56)c(Cl)cc4c32)C[C@H]1CC#N [Example 81a, 2-((2S,4S)-1-(but-2-ynoyl)-4-(8-chloro-7-(6-chloro-5-methyl-1H-indazol-4-yl)-4-(3-(dimethyl-amino)-3-methylazetidin-1-yl)-6-fluoro-1H-imidazo[4,5-c]quinolin-1-yl)piperidin-2-yl)acetonitrile]	≤ 100	≤ 100
CC#CC(=O)N1CC[C@H](n2cnc3c(N4CC5(CCCN5C)C4)nc4c(F)c(-c5c(C)c(Cl)cc6[nH]ncc56)c(Cl)cc4c32)C[C@H]1CC#N [Example 83a, 2-((2S,4S)-1-(but-2-ynoyl)-4-(8-chloro-7-(6-chloro-5-methyl-1H-indazol-4-yl)-6-fluoro-4-(5-methyl-2,5-diazaspiro[3.4]octan-2-yl)-1H-imidazo[4,5-c]quinolin-1-yl)piperidin-2-yl)acetonitrile]	≤ 100	≤ 100

More lines, now with the values ahead:

IC50 [1] [nM]	IC50 (KRAS G12C) [nM]	SMILES
≤ 100	≤ 100	C=CC(=O)N1C[C@H](n2cnc3c(N4CC(N(C)C)C4)nc4c(F)c(-c5cc(O)cc6ccccc56)c(Cl)cc4c32)C[C@@H]1CC#N [Example 32, 2-((2R,4R)-1-acryloyl-4-(8-chloro-4-(3-(dimethylamino)azetidin-1-yl)-6-fluoro-7-(3-hydroxynaphthalen-1-yl)-1H-imidazo[4,5-c]quinolin-1-yl)pyrrolidin-2-yl)acetonitrile]
≤ 100	≤ 100	C=CC(=O)N1CC[C@H](n2cnc3c(N4CC(N(C)C)C4)nc4c(F)c(-c5ccccc5)c(Cl)cc4c32)C[C@H]1CC#N [Example 45, 2-((2S,4S)-1-acryloyl-4-(8-chloro-4-(3-(dimethylamino)azetidin-1-yl)-6-fluoro-7-phenyl-1H-imidazo[4,5-c]quinolin-1-yl)piperidin-2-yl)acetonitrile]
≤ 100	≤ 100	C=CC(=O)N1CC[C@H](n2cnc3c(N4CC(N(C)C)C4)nc4c(F)c(-c5cccc6ccccc56)c(Cl)cc4c32)C[C@H]1CC#N [Example 46, 2-((2S,4S)-1-acryloyl-4-(8-chloro-4-(3-(dimethylamino)azetidin-1-yl)-6-fluoro-7-(naphthalen-1-yl)-1H-imidazo[4,5-c]quinolin-1-yl)piperidin-2-yl)acetonitrile]
≤ 100	≤ 100	C=CC(=O)N1CC[C@H](n2cnc3c(N4CC(N(C)C)C4)nc4c(F)c(-c5cc(O)ccc5F)c(Cl)cc4c32)C[C@H]1CC#N [Example 55, 2-((2S,4S)-1-acryloyl-4-(8-chloro-4-(3-(dimethylamino)azetidin-1-yl)-6-fluoro-7-(2-fluoro-5-hydroxyphenyl)-1H-imidazo[4,5-c]quinolin-1-yl)piperidin-2-yl)acetonitrile]
≤ 100	≤ 100	C=CC(=O)N1CC[C@H](n2cnc3c(N4CC(N(C)C)C4)nc4c(F)c(-c5ccccc5F)c(Cl)cc4c32)C[C@H]1CC#N [Example 56, 2-((2S,4S)-1-acryloyl-4-(8-chloro-4-(3-(dimethylamino)azetidin-1-yl)-6-fluoro-7-(2-fluorophenyl)-1H-imidazo[4,5-c]quinolin-1-yl)piperidin-2-yl)acetonitrile]
≤ 100	≤ 100	C=CC(=O)N1CC[C@H](n2cnc3c(N4CC(N(C)C)C4)nc4c(F)c(-c5ccccc5Cl)c(Cl)cc4c32)C[C@H]1CC#N [Example 57, 2-((2S,4S)-1-acryloyl-4-(8-chloro-7-(2-chlorophenyl)-4-(3-(dimethylamino)-azetidin-1-yl)-6-fluoro-1H-imidazo[4,5-c]quinolin-1-yl)piperidin-2-yl)acetonitrile]
≤ 100	≤ 100	C=CC(=O)N1CC[C@H](n2cnc3c(N4CC(N(C)C)C4)nc4c(F)c(-c5cccc(F)c5Cl)c(Cl)cc4c32)C[C@H]1CC#N [Example 58, 2-((2S,4S)-1-acryloyl-4-(8-chloro-7-(2-chloro-3-fluorophenyl)-4-(3-(dimethyl-amino)azetidin-1-yl)-6-fluoro-1H-imidazo[4,5-c]quinolin-1-yl)piperidin-2-yl)acetonitrile]
≤ 100	≤ 100	C=CC(=O)N1CC[C@H](n2cnc3c(N4CC(N(C)C)C4)nc4c(F)c(-c5ccc(C)cc5C)c(Cl)cc4c32)C[C@H]1CC#N [Example 59, 2-((2S,4S)-1-acryloyl-4-(8-chloro-4-(3-(dimethylamino)azetidin-1-yl)-7-(2,4-dimethylphenyl)-6-fluoro-1H-imidazo[4,5-c]quinolin-1-yl)piperidin-2-yl)acetonitrile]
≤ 100	≤ 100	C=CC(=O)N1CC[C@H](n2cnc3c(N4CC(N(C)C)C4)nc4c(F)c(-c5cc(C)ccc5C)c(Cl)cc4c32)C[C@H]1CC#N [Example 60, 2-((2S,4S)-1-acryloyl-4-(8-chloro-4-(3-(dimethylamino)azetidin-1-yl)-7-(2,5-dimethylphenyl)-6-fluoro-1H-imidazo[4,5-c]quinolin-1-yl)piperidin-2-yl)acetonitrile]
≤ 100	≤ 100	C=CC(=O)N1CC[C@H](n2cnc3c(N4CC(N(C)C)C4)nc4c(F)c(-c5cccc(Cl)c5C)c(Cl)cc4c32)C[C@H]1CC#N [Example 61, 2-((2S,4S)-1-acryloyl-4-(8-chloro-7-(3-chloro-2-methylphenyl)-4-(3-(dimethyl-amino)azetidin-1-yl)-6-fluoro-1H-imidazo[4,5-c]quinolin-1-yl)piperidin-2-yl)acetonitrile]
≤ 100	≤ 100	C=CC(=O)N1C[C@H](n2cnc3c(N4CC(N(C)C)C4)nc4c(F)c(-c5cccc(C)c5C)c(Cl)cc4c32)C[C@@H]1CC#N [Example 62, 2-((2R,4R)-1-acryloyl-4-(8-chloro-4-(3-(dimethylamino)azetidin-1-yl)-7-(2,3-dimethylphenyl)-6-fluoro-1H-imidazo[4,5-c]quinolin-1-yl)pyrrolidin-2-yl)acetonitrile]
